Holding throughout (assay type): binding
Common to all, as to conditions: Compound Concentration 10 µM

Assay [1] addresses T1, panel of 442 kinases (Homo sapiens, UniProt Q86V86).
T1 construct: purchased KINOMEscan
An excerpt: (§1) We assessed the selectivity of members of this scaffold using the KINOMEscan methodology across a near comprehensive panel of 442 kinases [[18,27]].

Assay [2] deals with T2, panel of 442 kinases (Homo sapiens, UniProt P42336, Q546K).
T2 construct: purchased KINOMEscan
From the text: as §1

Assay [3] concerns the target T3, panel of 442 kinases (Homo sapiens, UniProt P06241).
T3 construct: purchased KINOMEscan
From the text: as §1

In assay [4] the target is T4, panel of 442 kinases (Homo sapiens, UniProt P42338).
T4 construct: purchased KINOMEscan
From the text: as §1

T4 sequence (P42338 whole entry): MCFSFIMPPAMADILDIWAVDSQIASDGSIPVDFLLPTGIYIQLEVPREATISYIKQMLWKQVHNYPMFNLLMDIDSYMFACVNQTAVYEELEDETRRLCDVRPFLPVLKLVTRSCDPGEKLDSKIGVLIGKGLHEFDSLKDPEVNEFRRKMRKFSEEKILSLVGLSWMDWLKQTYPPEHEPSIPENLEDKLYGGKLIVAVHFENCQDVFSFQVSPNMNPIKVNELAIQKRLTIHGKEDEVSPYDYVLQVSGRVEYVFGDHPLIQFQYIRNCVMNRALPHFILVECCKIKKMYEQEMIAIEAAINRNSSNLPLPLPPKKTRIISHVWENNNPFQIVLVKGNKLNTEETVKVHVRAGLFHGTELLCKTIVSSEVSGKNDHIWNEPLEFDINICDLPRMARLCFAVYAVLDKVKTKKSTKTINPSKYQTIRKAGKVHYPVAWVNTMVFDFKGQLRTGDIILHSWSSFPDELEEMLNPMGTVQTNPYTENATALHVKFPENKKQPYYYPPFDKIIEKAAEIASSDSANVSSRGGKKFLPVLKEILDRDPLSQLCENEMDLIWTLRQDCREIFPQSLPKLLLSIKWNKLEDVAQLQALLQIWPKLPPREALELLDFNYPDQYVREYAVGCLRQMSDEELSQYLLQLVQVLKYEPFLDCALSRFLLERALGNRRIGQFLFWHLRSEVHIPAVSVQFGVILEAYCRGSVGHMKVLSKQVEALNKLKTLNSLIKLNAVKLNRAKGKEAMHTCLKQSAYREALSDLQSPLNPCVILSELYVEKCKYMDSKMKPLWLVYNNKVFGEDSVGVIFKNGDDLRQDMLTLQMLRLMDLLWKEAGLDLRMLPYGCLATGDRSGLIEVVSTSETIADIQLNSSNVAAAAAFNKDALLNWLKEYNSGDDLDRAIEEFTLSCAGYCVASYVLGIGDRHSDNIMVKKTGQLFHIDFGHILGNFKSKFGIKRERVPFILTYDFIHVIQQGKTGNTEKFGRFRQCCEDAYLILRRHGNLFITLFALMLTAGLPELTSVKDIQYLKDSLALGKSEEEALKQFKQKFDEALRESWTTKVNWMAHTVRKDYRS
T2 sequence (P42336 whole entry Q546K): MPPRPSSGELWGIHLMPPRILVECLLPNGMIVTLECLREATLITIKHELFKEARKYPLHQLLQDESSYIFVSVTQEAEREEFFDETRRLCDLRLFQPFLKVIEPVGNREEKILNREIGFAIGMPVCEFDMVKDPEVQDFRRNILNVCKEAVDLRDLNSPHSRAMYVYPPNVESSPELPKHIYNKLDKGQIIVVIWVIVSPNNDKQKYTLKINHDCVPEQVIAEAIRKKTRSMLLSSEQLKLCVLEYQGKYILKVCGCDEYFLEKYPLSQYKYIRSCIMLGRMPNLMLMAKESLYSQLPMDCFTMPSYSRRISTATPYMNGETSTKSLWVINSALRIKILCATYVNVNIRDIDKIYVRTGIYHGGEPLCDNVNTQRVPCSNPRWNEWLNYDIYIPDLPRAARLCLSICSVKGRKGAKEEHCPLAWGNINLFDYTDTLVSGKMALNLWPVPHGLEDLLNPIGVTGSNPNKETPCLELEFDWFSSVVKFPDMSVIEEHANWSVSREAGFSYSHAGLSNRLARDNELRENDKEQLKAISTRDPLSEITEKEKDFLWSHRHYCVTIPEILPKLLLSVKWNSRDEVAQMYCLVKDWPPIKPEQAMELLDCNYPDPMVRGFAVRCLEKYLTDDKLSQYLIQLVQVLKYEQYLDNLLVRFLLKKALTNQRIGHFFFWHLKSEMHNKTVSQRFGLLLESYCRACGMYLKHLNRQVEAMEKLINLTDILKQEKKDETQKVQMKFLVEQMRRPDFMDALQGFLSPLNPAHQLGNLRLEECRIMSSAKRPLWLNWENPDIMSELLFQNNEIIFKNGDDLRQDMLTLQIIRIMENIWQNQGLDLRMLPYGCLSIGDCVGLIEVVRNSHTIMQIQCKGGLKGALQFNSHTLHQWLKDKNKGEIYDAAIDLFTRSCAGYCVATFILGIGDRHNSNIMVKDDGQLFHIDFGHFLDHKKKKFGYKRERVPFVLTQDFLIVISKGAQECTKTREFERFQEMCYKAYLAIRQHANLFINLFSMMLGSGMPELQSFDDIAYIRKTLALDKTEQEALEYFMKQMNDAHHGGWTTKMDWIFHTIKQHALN
T3 sequence (P06241 whole entry): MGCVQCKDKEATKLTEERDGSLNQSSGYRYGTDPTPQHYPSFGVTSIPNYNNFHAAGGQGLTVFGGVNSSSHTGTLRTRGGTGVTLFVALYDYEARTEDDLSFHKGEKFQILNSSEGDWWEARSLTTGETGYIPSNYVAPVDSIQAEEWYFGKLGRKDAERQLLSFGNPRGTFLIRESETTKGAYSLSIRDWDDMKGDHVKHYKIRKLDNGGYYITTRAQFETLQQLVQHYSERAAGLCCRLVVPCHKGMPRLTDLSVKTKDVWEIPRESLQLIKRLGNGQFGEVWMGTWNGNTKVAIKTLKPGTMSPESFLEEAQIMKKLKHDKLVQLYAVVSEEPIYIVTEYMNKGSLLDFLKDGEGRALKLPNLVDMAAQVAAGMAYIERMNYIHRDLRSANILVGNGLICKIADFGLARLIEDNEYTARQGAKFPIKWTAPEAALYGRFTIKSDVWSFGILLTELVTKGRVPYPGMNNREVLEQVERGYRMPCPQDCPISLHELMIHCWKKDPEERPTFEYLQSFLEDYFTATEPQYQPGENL

In the case of `CCOc1cc(C(=O)N2CCC(N3CCN(C)CC3)CC2)ccc1Nc1ncc2c(n1)N(C1CCCC1)c1ccccc1C(=O)N2C` [Compound 26], in assay [1], the “KINOMEscan: PIM3” value is listed as 100. Also, the “KINOMEscan: PIK3CA(Q546K)” value in assay [2] was 99. For the same compound, the “KINOMEscan: FYN” value in assay [3] amounted to 78. The “KINOMEscan: PIK3CB” value in assay [4] is given as 100.

As to `COc1cc(C(=O)N2CCC(N3CCN(C)CC3)CC2)ccc1Nc1ncc2c(n1)N1CCc3cccc(c31)C(=O)N2C` [Compound 24], the “KINOMEscan: PIM3” value in assay [1] was 67. Besides, the “KINOMEscan: PIK3CA(Q546K)” value in assay [2] is reported as 98. The “KINOMEscan: FYN” value in assay [3] came out at 82. For the same compound, the “KINOMEscan: PIK3CB” value in assay [4] came to 71.

For `COc1cc(C(=O)N2CCC(N3CCN(C)CC3)CC2)ccc1Nc1ncc2c(n1)N(C)c1ccccc1C(=O)N2C` [15 (LRRK2-IN-1)], the “KINOMEscan: PIM3” value in assay [1] came out at 88. The “KINOMEscan: PIK3CA(Q546K)” value in assay [2] stood at 91. Besides, the “KINOMEscan: FYN” value in assay [3] is recorded as 100. Also, the “KINOMEscan: PIK3CB” value in assay [4] is reported as 96.

On to `COc1cc(C(=O)N2CCC(N3CCN(C)CC3)CC2)ccc1Nc1ncc2c(n1)N(C1CCCC1)c1ccccc1C(=O)N2C` [Compound 25, 11-cyclopentyl-2-((2-methoxy-4-(4-(4-methylpiperazin-1-yl)piperidine-1-carbonyl)phenyl)amino)-5-methyl-5H-benzo[e]pyrimido[5,4-b][1,4]diazepin-6(11H)-one], for which, in assay [1], the “KINOMEscan: PIM3” value is on record as 78. In addition, the “KINOMEscan: PIK3CA(Q546K)” value in assay [2] was found to be 100. In assay [3], the “KINOMEscan: FYN” value is on record as 86. Besides, the “KINOMEscan: PIK3CB” value in assay [4] came out at 87.

The values are drawn from paper PMC3914206.
